Experimental data taken from ChEMBL document CHEMBL4020734, “Identification of a novel fluoropyrrole derivative as a potassium-competitive acid blocker with long duration of action” (Bioorg Med Chem, 2017).
Calls of active or inactive are those of the source. The rule behind the calls is not given here.

Assays:
[1] = Inhibition of H+/K+-ATPase in porcine stomach gastric mucosal microsomes assessed as reduction in inorganic phosphate production using ATP as substrate preincubated for 30 mins followed by ATP addition in presence of KCl by malachite green reagent based colorimetric assay; design: species or system Sus scrofa
[2] = Lipophilicity, log D of the compound at pH 7.4 by HPLC analysis; type: physicochemical; settings: buffer
[3] = Cytotoxicity against human HepG2 cells assessed as cellular ATP level at 30 uM after 1 day by ATPLite assay relative to control; type: cell-based; settings: read-out: Activity
Rattus norvegicus [4] = test: Inhibition of histamine-induced acid secretion in Jcl:SD rat gastric at 1 mg/kg, iv pretreated for 3 mins followed by histamine.2HCl treatment measured after 3 hrs by titration method; type: functional
[5] = Dissociation constant, pKa of the compound; type: physicochemical
[6] = Cytotoxicity against human HepG2 cells assessed as cellular ATP level at 100 uM after 1 day by ATPLite assay relative to control; type: cell-based; settings: read-out: Activity
hERG (KCNH2) = hERG (KCNH2) (Homo sapiens, UniProt Q12809); test: Inhibition of human ERG expressed in HEK cells at 10 uM at -75 mV holding potential by Whole-cell voltage clamp assay relative to control; type: cell-based; settings: HEK cells expressing human ERG
[7] = Solubility of the compound; type: physicochemical
[8] = Inhibition of CYP450 (unknown origin); type: ADME; settings: human
[9] = Metabolic stability of the compound
Rattus norvegicus [10] = test: Inhibition of histamine-induced acid secretion in Jcl:SD rat gastric assessed as pH of gastric perfusate at 3 mg/kg, iv pretreated for 3 mins followed by histamine.2HCl treatment measured in early time point by glass electrode method (reference value: 2); type: functional
Canis familiaris [11] = test: Inhibition of histamine-induced acid secretion in dog heidenhain pouch at 3 mg/kg, po treated 1 day after and 1 to 48 hrs before histamine.2HCl treatment measured 30 mins post histamine challenge by titration method; type: functional, organism-based; settings: Canis lupus familiaris
Rattus norvegicus [12] = test: Inhibition of histamine-induced acid secretion in Jcl:SD rat gastric assessed as increase in pH of gastric perfusate at 3 mg/kg, iv pretreated for 3 mins followed by histamine.2HCl treatment measured up to 5 hrs by glass electrode method; type: functional, organism-based
[13] = Stability of the compound under acidic condition; type: physicochemical
Rattus norvegicus [14] = test: Inhibition of histamine-induced acid secretion in po dosed rat gastric pretreated for 1 hr followed by histamine.2HCl treatment measured after 3 hrs by titration method; type: functional, organism-based
Canis familiaris [15] = test: Inhibition of histamine-induced acid secretion in dog heidenhain pouch at 0.8 mg/kg, po treated 1 day after and 1 to 48 hrs before histamine.2HCl treatment measured 30 mins post histamine challenge by titration method; type: functional; settings: Canis lupus familiaris
[16] = Effective permeability of the compound at 10 uM at pH 7.4 after 3 hrs by PAMPA; type: physicochemical; settings: read-out: Peff
[17] = Effective permeability of the compound at 10 uM at pH 5 after 3 hrs by PAMPA; type: physicochemical; settings: read-out: Peff
Rattus norvegicus [18] = test: Inhibition of histamine-induced acid secretion in Jcl:SD rat gastric assessed as pH of gastric perfusate at 0.7 mg/kg, iv pretreated for 3 mins followed by histamine.2HCl treatment measured after 5 hrs by glass electrode method (reference value: 2); type: functional
Rattus norvegicus [19] = test: Inhibition of histamine-induced acid secretion in Jcl:SD rat gastric assessed as pH of gastric perfusate at 1 mg/kg, iv pretreated for 3 mins followed by histamine.2HCl treatment measured after 150 to 180 mins by glass electrode method (reference value: 2); type: functional
Rattus norvegicus [20] = test: Inhibition of histamine-induced acid secretion in Jcl:SD rat gastric assessed as pH of gastric perfusate at 1 mg/kg, iv pretreated for 3 mins followed by histamine.2HCl treatment measured up to 2 hrs by glass electrode method (reference value: 2); type: functional
Rattus norvegicus [21] = test: Inhibition of histamine-induced acid secretion in Jcl:SD rat gastric assessed as increase in pH of gastric perfusate at 1 mg/kg, iv pretreated for 3 mins followed by histamine.2HCl treatment measured after 2 hrs by glass electrode method; type: functional, organism-based
Canis familiaris [22] = test: Inhibition of histamine-induced acid secretion in dog heidenhain pouch at 1 mg/kg, po treated 1 day after and 1 to 48 hrs before histamine.2HCl treatment measured 30 mins post histamine challenge by titration method; type: functional, organism-based; settings: Canis lupus familiaris

Chain of hERG (KCNH2) (Q12809 whole entry): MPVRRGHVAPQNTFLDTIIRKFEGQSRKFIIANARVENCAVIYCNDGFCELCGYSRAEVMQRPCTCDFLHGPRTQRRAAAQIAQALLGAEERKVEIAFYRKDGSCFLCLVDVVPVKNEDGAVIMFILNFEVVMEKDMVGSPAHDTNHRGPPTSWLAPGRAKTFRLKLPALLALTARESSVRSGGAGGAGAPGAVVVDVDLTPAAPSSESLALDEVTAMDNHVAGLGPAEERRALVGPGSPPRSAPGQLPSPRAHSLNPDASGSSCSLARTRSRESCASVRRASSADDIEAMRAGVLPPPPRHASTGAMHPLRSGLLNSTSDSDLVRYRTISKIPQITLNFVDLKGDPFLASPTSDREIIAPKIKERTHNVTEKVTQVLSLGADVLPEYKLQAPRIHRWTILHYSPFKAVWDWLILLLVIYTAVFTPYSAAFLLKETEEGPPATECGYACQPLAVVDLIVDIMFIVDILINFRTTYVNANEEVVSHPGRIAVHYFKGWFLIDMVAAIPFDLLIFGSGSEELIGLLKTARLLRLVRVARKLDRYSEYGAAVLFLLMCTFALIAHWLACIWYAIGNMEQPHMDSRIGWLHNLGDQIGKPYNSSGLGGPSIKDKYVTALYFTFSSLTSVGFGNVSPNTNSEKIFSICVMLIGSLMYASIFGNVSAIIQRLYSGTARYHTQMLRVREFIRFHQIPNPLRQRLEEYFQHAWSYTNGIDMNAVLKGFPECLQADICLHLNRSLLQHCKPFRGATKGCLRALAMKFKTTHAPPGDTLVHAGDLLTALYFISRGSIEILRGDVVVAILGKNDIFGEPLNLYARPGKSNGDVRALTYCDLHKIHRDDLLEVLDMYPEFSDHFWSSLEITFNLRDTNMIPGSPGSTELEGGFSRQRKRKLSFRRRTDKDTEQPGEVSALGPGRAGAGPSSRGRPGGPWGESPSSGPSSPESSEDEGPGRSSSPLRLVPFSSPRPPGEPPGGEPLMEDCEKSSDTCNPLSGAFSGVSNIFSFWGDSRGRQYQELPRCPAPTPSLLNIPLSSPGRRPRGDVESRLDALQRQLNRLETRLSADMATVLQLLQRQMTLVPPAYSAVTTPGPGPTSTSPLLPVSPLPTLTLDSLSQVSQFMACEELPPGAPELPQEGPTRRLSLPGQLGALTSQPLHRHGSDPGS

| SMILES | IC50 [1] | logD [2] | inhibition in vivo at 1 mg/kg (Rattus norvegicus [4]) | viability at 24 h, 100 µM [6] | inhibition at 10 µM (hERG (KCNH2)) | also measured |
| --- | --- | --- | --- | --- | --- | --- |
| CNCc1cc(-c2ccccc2)n(S(=O)(=O)c2ccc(C)cc2)c1 | 46 to 55 nM | 1.83 | 66% | – | – | viability at 24 h, 30 µM [3]: 38.6%; pKa [5]: 9.49 |
| CNCc1cc(-c2cccc(F)c2)n(S(=O)(=O)c2ccc(C)cc2)c1 | 19 nM | 1.98 | 77% | – | – | viability at 24 h, 30 µM [3]: 0.6%; pKa [5]: 9.31 |
| CNCc1cc(-c2cccnc2F)n(S(=O)(=O)c2cccs2)c1 | 32 nM | -0.69 | 96% | 74.9% | 63% | – |
| CNCc1cc(-c2cccnc2C#N)n(S(=O)(=O)c2cccnc2)c1 | 530 nM | -1.29 | 48% | 85.3% | 1.9% | – |
| CNCc1cc(-c2cccnc2F)n(S(=O)(=O)c2ccsc2)c1 | 32 nM | -0.83 | 98% | 64% | 60% | – |
| CNCc1cc(-c2cccnc2F)n(S(=O)(=O)c2cccc(OC)c2)c1 | 28 nM | 0.1 | 92% | 30.6% | 72.8% | – |
| CNCc1cc(-c2cccnc2Cl)n(S(=O)(=O)c2ccccc2)c1 | 43 nM | -0.1 | 99% | 76.3% | 40.9% | – |
| CNCc1cc(-c2cccnc2)n(S(=O)(=O)c2ccccc2)c1 | 130 nM | 0.08 | 4% | 95% | 43.3% | solubility [7]: Soluble; inhibition (INH) [8]: Not Active; Stability [9]: Stable |
| CNCc1cc(-c2cnccc2C)n(S(=O)(=O)c2cccnc2)c1 | 230 nM | -0.51 | -54% | 86% | 8.3% | – |
| Cc1c(OCC(F)(F)F)ccnc1C[S+]([O-])c1nc2ccccc2[nH]1 (stereo not drawn) [LANSOPRAZOLE] | – | – | – | – | – | pH (Rattus norvegicus [10]): <5; inhibition (INH) [8]: Active; inhibition (Canis familiaris [11]): Active; inhibition (Rattus norvegicus [12]): inactive |
| CNCc1cc(-c2ccccc2F)n(S(=O)(=O)c2ccc(C)cc2)c1 | 34 nM | 1.56 | 91% | – | – | viability at 24 h, 30 µM [3]: 8%; pKa [5]: 9.48 |
| CNCc1cn(S(=O)(=O)c2cccnc2)c(-c2cccnc2F)c1Cl | 99 nM | 0.48 | 95% | 64.5% | 41.3% | – |
| CNCc1cc(-c2cccnc2F)n(S(=O)(=O)c2ccoc2)c1 | 92 nM | -1.31 | 82% | 77.4% | 59.3% | – |
| CNCc1cc(-c2cccnc2F)n(S(=O)(=O)c2cccc(F)c2)c1 | 33 nM | 0.23 | 99% | 65.9% | 56.2% | – |
| CNCc1cn(S(=O)(=O)c2cccnc2)c(-c2cccnc2F)c1F | 49 nM | 0.04 | 98% | 100% | 39.8% | Stability [13]: Stable; inhibition (Rattus norvegicus [14]): Dose-dependent effect; inhibition in vivo at 0.8 mg/kg (Canis familiaris [15]): 100%; Papp at 3 h, 10 µM [16]: 25.6 ×10⁻⁶ cm/s; inhibition (INH) [8]: Not Active; pKa [5]: 8.54; Papp at 3 h, 10 µM [17]: 4.7 ×10⁻⁶ cm/s; pH (Rattus norvegicus [18]): 6 |
| CNCc1cc(-c2cccnc2F)n(S(=O)(=O)c2cccc(C#N)c2)c1 | 89 nM | -0.36 | 99% | 46.7% | 46.7% | – |
| CNCc1cn(S(=O)(=O)c2cccnc2)c(-c2cccnc2F)c1C | 220 nM | -0.4 | 93% | 47.1% | 30.3% | – |
| CNCc1cc(-c2ccccc2C(F)(F)F)n(S(=O)(=O)c2ccc(C)cc2)c1 | 88 nM | 1.94 | 86% | – | – | viability at 24 h, 30 µM [3]: 0.5% |

| SMILES | IC50 [1] | logD [2] | inhibition in vivo at 1 mg/kg (Rattus norvegicus [4]) | viability at 24 h, 100 µM [6] | inhibition at 10 µM (hERG (KCNH2)) | also measured |
| --- | --- | --- | --- | --- | --- | --- |
| CNCc1cc(-c2cccnc2F)n(S(=O)(=O)c2ccc(OC)nc2)c1 | 40 nM | 0.24 | 97% | 47.6% | 33.1% | – |
| CNCc1cc(-c2ccccc2F)n(S(=O)(=O)c2cccnc2)c1 [VONOPRAZAN] | – | 0.39 | – | – | – | pKa [5]: 9.3 |
| CNCc1cc(-c2cccnc2C)n(S(=O)(=O)c2cccnc2)c1 | 250 nM | 0.06 | -41% | 107% | – | – |
| CNCc1cc(-c2ccccc2)n(S(=O)(=O)c2ccccc2)c1 | 9.4 nM | 1.44 | 96% | – | 87.5% | viability at 24 h, 30 µM [3]: 53.8% |
| CNCc1cc(-c2cccnc2F)n(S(=O)(=O)c2ccccc2)c1 | 26 nM | -0.09 | 99% | 59.9% | 57% | – |
| CNCc1cc(-c2cccnc2F)n(S(=O)(=O)c2cccnc2)c1 | 210 nM | -0.85 | 96% | 85.7% | 4.4% | pH (Rattus norvegicus [19]): 5 |
| CNCc1cc(-c2ccccn2)n(S(=O)(=O)c2ccccc2)c1 | 120 nM | 0.28 | – | 91.2% | 48% | – |
| CNCc1cc(-c2cncnc2)n(S(=O)(=O)c2ccccc2)c1 | 410 nM | -0.4 | – | 97.5% | 24.2% | – |
| CNCc1cc(-c2ncccc2C)n(S(=O)(=O)c2cccnc2)c1 | 1300 nM | 0.53 | 5% | 88.7% | – | – |
| CNCc1cc(-c2ccccc2)n(S(=O)(=O)c2cccnc2)c1 | – | 0.73 | – | – | – | – |
| CNCc1cc(-c2cccnc2Cl)n(S(=O)(=O)c2cccnc2)c1 | 120 nM | -0.5 | 92% | 82.9% | 10.6% | – |
| CNCc1cc(-c2cccnc2C#N)n(S(=O)(=O)c2ccccc2)c1 | 120 nM | -0.32 | 99% | 82.1% | 32.9% | pH (Rattus norvegicus [20]): >5; inhibition (Rattus norvegicus [21]): inactive |
| CNCc1cc(-c2ccccc2)n(S(=O)(=O)c2ccc(OC)cc2)c1 | 30 nM | 1.54 | 95% | – | 89.1% | viability at 24 h, 30 µM [3]: 22.1%; Papp at 3 h, 10 µM [16]: 24.6 ×10⁻⁶ cm/s; pKa [5]: 9.48; Papp at 3 h, 10 µM [17]: 19.8 ×10⁻⁶ cm/s; inhibition (Canis familiaris [22]): Active |
| CNCc1cc(-c2ccc(F)cc2)n(S(=O)(=O)c2ccc(C)cc2)c1 | 90 nM | 2.05 | 86% | – | – | viability at 24 h, 30 µM [3]: 0.4%; pKa [5]: 9.4 |
| CNCc1cc(-c2cccnc2F)n(S(=O)(=O)c2ccccn2)c1 | 120 nM | 0.05 | 81% | 78.6% | – | – |
| CNCc1cc(-c2cccnc2F)n(S(=O)(=O)c2ccco2)c1 | 59 nM | -1.15 | 74% | 68.7% | 49.1% | – |
| CNCc1cc(-c2ccccc2C)n(S(=O)(=O)c2ccc(C)cc2)c1 | 62 nM | 2.12 | 92% | – | – | viability at 24 h, 30 µM [3]: 0.3% |
| CNCc1cc(-c2ccncc2F)n(S(=O)(=O)c2cccnc2)c1 | 290 nM | -0.34 | 48% | 78.8% | 18.8% | – |
